Test results as given in US10709758B2 (priority 2015, dated 2020).

Biological target: TcdB1 (Clostridioides difficile, UniProt P18177)
Sequence (P18177 2-2366 limits assumed): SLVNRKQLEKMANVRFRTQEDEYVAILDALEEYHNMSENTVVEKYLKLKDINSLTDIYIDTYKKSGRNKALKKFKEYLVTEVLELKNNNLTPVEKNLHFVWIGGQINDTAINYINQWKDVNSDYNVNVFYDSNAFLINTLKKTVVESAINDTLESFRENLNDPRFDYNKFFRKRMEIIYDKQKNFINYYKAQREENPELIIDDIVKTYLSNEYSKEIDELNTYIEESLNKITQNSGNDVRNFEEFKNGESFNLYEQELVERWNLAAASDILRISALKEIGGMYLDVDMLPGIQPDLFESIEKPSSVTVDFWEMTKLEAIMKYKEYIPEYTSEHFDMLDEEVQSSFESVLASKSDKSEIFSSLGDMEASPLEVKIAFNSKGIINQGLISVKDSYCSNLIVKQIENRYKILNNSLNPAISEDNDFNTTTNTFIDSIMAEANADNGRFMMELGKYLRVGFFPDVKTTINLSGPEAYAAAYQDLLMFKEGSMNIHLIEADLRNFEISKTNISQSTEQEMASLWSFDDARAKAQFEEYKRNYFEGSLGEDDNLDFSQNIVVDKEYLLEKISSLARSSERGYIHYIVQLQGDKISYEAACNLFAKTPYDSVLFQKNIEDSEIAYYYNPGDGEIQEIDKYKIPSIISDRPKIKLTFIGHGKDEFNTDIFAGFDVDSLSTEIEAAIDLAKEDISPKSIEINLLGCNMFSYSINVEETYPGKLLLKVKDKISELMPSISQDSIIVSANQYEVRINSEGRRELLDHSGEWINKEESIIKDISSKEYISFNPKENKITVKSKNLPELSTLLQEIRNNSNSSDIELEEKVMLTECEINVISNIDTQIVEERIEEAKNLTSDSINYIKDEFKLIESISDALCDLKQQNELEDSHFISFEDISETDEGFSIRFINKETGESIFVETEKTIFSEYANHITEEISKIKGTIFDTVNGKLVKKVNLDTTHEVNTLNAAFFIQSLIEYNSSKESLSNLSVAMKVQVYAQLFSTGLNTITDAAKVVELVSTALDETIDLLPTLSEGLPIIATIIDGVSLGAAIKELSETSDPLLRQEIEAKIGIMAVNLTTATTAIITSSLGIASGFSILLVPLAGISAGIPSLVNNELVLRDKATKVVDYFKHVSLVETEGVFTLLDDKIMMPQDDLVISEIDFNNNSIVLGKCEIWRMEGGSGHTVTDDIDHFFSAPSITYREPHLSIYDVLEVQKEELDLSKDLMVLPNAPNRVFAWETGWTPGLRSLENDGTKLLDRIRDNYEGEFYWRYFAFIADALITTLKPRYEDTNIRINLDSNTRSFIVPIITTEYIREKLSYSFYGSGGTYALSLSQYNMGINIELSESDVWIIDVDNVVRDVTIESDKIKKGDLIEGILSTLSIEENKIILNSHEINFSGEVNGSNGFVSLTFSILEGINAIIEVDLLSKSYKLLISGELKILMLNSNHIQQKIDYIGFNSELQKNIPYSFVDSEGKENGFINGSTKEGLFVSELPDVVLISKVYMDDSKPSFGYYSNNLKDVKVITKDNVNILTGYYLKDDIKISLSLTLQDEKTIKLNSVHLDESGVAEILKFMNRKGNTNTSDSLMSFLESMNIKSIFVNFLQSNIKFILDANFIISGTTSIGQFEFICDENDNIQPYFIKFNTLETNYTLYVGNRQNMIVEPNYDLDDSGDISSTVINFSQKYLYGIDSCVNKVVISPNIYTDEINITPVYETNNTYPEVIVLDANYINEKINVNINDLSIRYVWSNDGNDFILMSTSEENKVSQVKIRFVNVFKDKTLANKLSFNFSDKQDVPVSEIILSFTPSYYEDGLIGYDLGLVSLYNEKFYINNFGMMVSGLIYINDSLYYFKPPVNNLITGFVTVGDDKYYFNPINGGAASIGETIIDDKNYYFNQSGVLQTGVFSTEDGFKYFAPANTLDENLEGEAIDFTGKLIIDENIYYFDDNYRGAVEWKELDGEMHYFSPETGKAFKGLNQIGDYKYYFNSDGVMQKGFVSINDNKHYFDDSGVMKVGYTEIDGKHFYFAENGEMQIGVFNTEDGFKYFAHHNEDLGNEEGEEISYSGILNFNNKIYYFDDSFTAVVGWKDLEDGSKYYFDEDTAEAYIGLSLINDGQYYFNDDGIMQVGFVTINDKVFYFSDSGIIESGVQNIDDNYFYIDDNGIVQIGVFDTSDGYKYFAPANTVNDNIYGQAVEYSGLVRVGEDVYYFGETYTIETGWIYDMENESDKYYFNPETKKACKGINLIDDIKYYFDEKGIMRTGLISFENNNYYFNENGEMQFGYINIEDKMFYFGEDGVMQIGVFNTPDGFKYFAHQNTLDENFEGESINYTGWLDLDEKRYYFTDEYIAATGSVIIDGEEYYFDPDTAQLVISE

Row | Sequence | TcdB inhibitory activity of PepB2/PepB1 substitution variants
1 | NVFKDKTISDKISFNFSDK [PepB2-GN5-6DK] | inhibitory activity of the resulting peptide was lost
2 | NVFKDNTISDKISFNFSDK [PepB2-G5D] | inhibitor activity was lost
3 | NVFKGKTISDKISFNFSDK [PepB2-N6K] | TcdB inhibitory activity also disappeared
4 | NVFKGNTLANKLSFNFSDK [PepB1-DK5-6GN] | Inhibitory activity was gained
5 | NVFKSNTISDKISFNFSDK [PepB2-G5S] | activity was also lost
